Test results published in PubChem BioAssay (NCI).
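In this assay, cells in 96-well plates receive the compound at five concentrations for 48 hours. Endpoints are linearly interpolated between the surrounding concentrations. GI50 is the concentration that inhibits growth by half. The concentration for full growth arrest is given as TGI.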

How the values were obtained:
Assay in all cases: NCI-60 cell line screen, 48 h
[1] = system: NCI-H226 lung
[2] = system: TK-10 renal
[3] = system: LOX IMVI melanoma
[4] = system: HCC-2998 colon
[5] = system: NCI/ADR-RES ovarian
[6] = system: A498 renal
[7] = system: IGROV1 ovarian
[8] = system: NCI-H23 lung
[9] = system: MDA-MB-231 breast
[10] = system: UACC-257 melanoma

| SMILES | GI50 [1] [µM] | TGI [1] [µM] | TGI [2] [µM] | GI50 [3] [µM] | TGI [3] [µM] | GI50 [4] [µM] | TGI [4] [µM] | GI50 [5] [µM] | TGI [5] [µM] | GI50 [6] [µM] | TGI [6] [µM] | GI50 [7] [µM] | TGI [7] [µM] | GI50 [8] [µM] | TGI [8] [µM] | GI50 [9] [µM] | TGI [9] [µM] | GI50 [10] [µM] | TGI [10] [µM] | GI50 [2] [µM] |
| --- | --- | --- | --- | --- | --- | --- | --- | --- | --- | --- | --- | --- | --- | --- | --- | --- | --- | --- | --- | --- |
| C[C@@H]1CC[C@@]2(OC1)O[C@H]1C[C@H]3[C@@H]4CC=C5C[C@@H](O[C@@H]6O[C@H](CO)[C@@H](O[C@@H]7O[C@@H](CO)[C@H](O)[C@H]7O)[C@H](O)[C@H]6O[C@@H]6O[C@@H](C)[C@H](O)[C@@H](O)[C@H]6O)CC[C@]5(C)[C@H]4CC[C@]3(C)[C@H]1[C@@H]2C | 1.33 | 3.07 | 2.19 | 0.332 | 1.19 | 1.71 | 3.1 | 1.43 | 2.78 | 1.28 | 2.55 | 1.16 | 2.38 | 1.58 | 2.97 | 0.514 | 1.77 | 1.31 | 2.64 |  |
| COc1ccccc1-n1c(SCc2cc(OC)c(OC)c(OC)c2)nc2ccc(Cl)cc2c1=O | 13.3 | > 100 | > 100 | 5.16 | > 100 | 7.8 | > 100 | 2.25 | > 100 | 1.76 | 48.2 | 10.9 | > 100 | 5.9 | > 100 | 4.24 | > 100 | 5.7 | > 100 | 48.6 |
| COc1ccc(C(O)c2cc3c(N)c(C(=O)Nc4cccc(Br)c4)sc3nc2C)cc1 (stereo unspecified) | 0.18 | > 47 | > 95.1 | 0.154 | > 32.4 | 0.121 | 15.5 | 0.104 | 4.87 | 0.0536 | 0.231 | 0.231 | > 100 | 0.181 | > 60.4 | 0.104 | 1.63 | 6.4 | > 50.4 | 9.26 |
| CN(Cc1cnc2nc(N)nc(N)c2n1)c1ccc(C(=O)NC(CCC(=O)O)C(=O)O)cc1 (stereo unspecified) | 0.505 | > 100 | > 100 | 0.0372 | > 100 | 0.0992 | > 100 | 0.0722 | > 100 |  | > 100 | 0.809 | > 100 | 0.354 | > 100 | > 24 | > 100 | 0.955 | > 100 | > 100 |
| COC(=O)CCC1=C(C)c2cc3[n-]c(cc4nc(cc5[n-]c(cc1n2)c(CCC(=O)OC)c5C)C=C4C)cc3C.[Cd+2] | 1.52 | 4.73 | 13.6 | 13.1 | > 74.6 | 22.2 | > 68.1 | 39.8 | > 100 | 9.01 | 26.3 | 3.03 | 8.82 | 3.03 | 16.7 | 7.28 | 31.4 | 4.06 | 18.3 | 5.25 |
| O=c1[nH]c(-c2ccc(C(F)(F)F)cc2)nc2c1CSCC2 | 30.4 | > 100 | 66.8 | > 71.1 | > 100 | > 81.2 | > 100 | 35.8 | > 100 | 22.9 | 97.3 | 43.1 | > 100 | 41.9 | > 100 | 40.4 | > 100 | > 65.2 | > 100 | 23.8 |
| Cn1cnc([N+](=O)[O-])c1Sc1ncnc2c1ncn2C1OC(CO)C(O)C1O (stereo unspecified) | 8.04 | > 100 | > 100 | 1.71 | > 100 | 5.02 | > 100 | 4.84 | > 100 | 2.36 | > 100 | 11.4 | > 100 | 4.8 | > 100 | 9.62 | > 100 | 24.5 | > 100 | 4.58 |
| O=C(NNS(=O)(=O)c1cc(C(F)(F)F)cc(C(F)(F)F)c1)c1cnn(-c2ccc(Cl)cc2)c1C(F)(F)F | 20.7 | 54.3 | 54.7 | 17 | 36.5 | 16.4 | 31 | 19.6 | 41 | 14.1 | 29.3 | 17.4 | 38.5 | 18.5 | 40.8 | 19.6 | 40.3 | 15.2 | 43.7 | 24.3 |
| CCS/C(Nc1ccccc1)=C(\C#N)C(=O)Nc1ccc(OC)cc1 | 5.45 | 50.7 | > 100 | 6.16 | > 100 | 6.56 | > 100 | 2.62 | > 100 | 2.54 | 26.6 | 5.3 | > 100 | 4.9 | > 100 | 4.14 | 36.5 | 21.2 | > 100 | 24.3 |
| O=C1/C(=C/c2cccs2)CCC/C1=C\c1cccs1 | 49.1 | > 100 | > 71.8 | > 100 | > 100 | > 100 | > 100 | 50.9 | > 100 | 31.4 | > 100 | 30.3 | 98.5 | > 83.8 | > 100 | 44.6 | > 100 | 79.1 | > 100 | 25.9 |
| Cn1c(O)c(C(=O)Nc2ccc([N+](=O)[O-])cc2)c(=O)n(C)c1=S |  | 9.85 | 10.7 |  | > 24.9 |  | 7.23 |  | 11 |  | 2.17 |  | 10.1 |  | 3.26 |  | 6.12 |  | 6.36 |  |
| C=C1C(C)C2C(Cc3ccccc3)NC(=O)C23C(OC(C)=O)/C=C/C(C)(O)CC(C)C/C=C/C3C1O (stereo unspecified) |  | 42.3 | > 54.5 |  | 19.2 |  | > 100 |  | > 100 |  | 1.15 |  | 48.2 |  | 91.6 |  | > 100 |  | 86.5 |  |
| COc1ccc(/C=C(\C#N)c2cc3ccccc3n2C)cc1 | 1.87 | > 70.8 | > 100 | 0.577 | > 100 | 0.865 | 5.98 | 0.319 | > 28.7 | 0.071 | 0.675 | 0.526 | > 100 | 0.645 | > 100 | 0.699 | > 100 | 3.32 | > 100 | 4.51 |
| O=C(/C=C/c1ccco1)Nc1ncc(Cc2ccc(F)cc2)s1 |  | > 100 | > 100 | 0.0918 | > 100 | 0.224 | > 100 | 0.0445 | 4.02 | 0.027 | 0.0975 | 0.167 | > 100 | 0.234 | > 100 | 0.199 | > 45.4 |  | > 100 | 10.2 |
| COc1ccc([C@H]2O[C@@H](CO)C[C@]2(O)c2ccc(OC)cc2)cc1 | > 100 | > 100 | > 100 | > 100 | > 100 | > 100 | > 100 | > 100 | > 100 | > 100 | > 100 | > 100 | > 100 | > 100 | > 100 | > 100 | > 100 | > 100 | > 100 | > 100 |
| CC1(C)OCN(c2ccc(Cl)cc2)Cn2c1nc1ccccc12 |  | > 100 | > 100 |  | > 100 |  | > 80.9 |  | > 100 |  | > 100 |  | > 26.7 |  | > 100 |  | > 100 |  | > 100 |  |
| CCSC1=CC(=O)c2ccccc2C1=O | 16.8 | 32.9 | 4.65 | 2.55 | 8.89 | 17 | 31.8 | 2.37 | 7.39 | 16.4 | 41.2 | 4.86 | 17.1 | 9.05 | 26.6 | 0.759 | 3.3 | 1.6 | 3.89 | 2.5 |
| COc1ccc2c(c1)OC13Oc4cc(OC)ccc4C=C1CCCC3=C2 | > 100 | > 100 | > 100 | > 100 | > 100 | > 100 | > 100 | > 100 | > 100 | > 100 | > 100 | > 100 | > 100 | > 100 | > 100 | > 100 | > 100 | > 100 | > 100 | > 100 |
